Data as given in patent publication US8071580B2, “Medium-chain length fatty alcohols as stimulators of hematopoiesis” (Prometic Biosciences Inc., priority 2004, dated 2011).

Tests used:
[1] = test system: Female C57BL/6 mice immunosuppressed with cyclophosphamide; experiment: Chemoprotection studies: in vivo induction of immune cell proliferation or protection in cyclophosphamide-immunosuppressed mice; details: oral pre-treatment day -3, -2, -1, CY 200 mg/kg i.v. day 0, sacrifice day +5; for peripheral white blood cell count: FIG. 2; for spleen red cell count: FIG. 3
Protocol: Chemoprotection Studies: In vivo Induction of Immune Cell Proliferation or Protection By Medium-Chain Fatty Alcohol.
Female C57BL/6 mice, 6 to 8 weeks old, were immunosuppressed by treatment with 200 mg/kg of cyclophosphamide (CY) administered intravenously at day 0. To examine the immunoprotective effect of the medium-chain fatty alcohol, mice were pre-treated at day −3, −2 and −1 by oral administration of the compound. Mice were sacrificed at day +5 by cardiac puncture and cervical dislocation. After the sacrifice, tissues were crushed in PBS buffer and cells were counted on a hemacytometer.

rats = details: oral; cited from earlier work

Row | SMILES | peripheral white blood cell count [1] | spleen red cell count [1] | LD50 (rats) | bone marrow white cell count ([1]; FIG. 1)
1 | CCCCCCCCCCCCO [dodecanol] | nonsignificant increase | significant increase | – | –
2 | CCCCCCCCO [octanol] | nonsignificant increase | significant increase | 3.2 g/kg body weight | –
3 | CCCCCCCCCCO [decanol] | nonsignificant increase | significant increase | 4.7 g/kg body weight | significant increase
